Measured values reported in ChEMBL document CHEMBL1132119, “1-Arylnaphthalene lignan: a novel scaffold for type 5 phosphodiesterase inhibitor” (J Med Chem, 1999).

Assays:
[1] = molecular target: Phosphodiesterase 1 (Canis familiaris); assay: Inhibitory activity against phosphodiesterase 1 (PDE I), isolated from cardiac ventricle
[2] = molecular target: Phosphodiesterase 3 (Canis familiaris); assay: Inhibitory activity against phosphodiesterase 3 (PDE 3) isolated from cardiac ventricle
[3] = molecular target: cGMP-specific 3',5'-cyclic phosphodiesterase (Canis lupus familiaris, UniProt O77746); assay: Inhibitory activity against phosphodiesterase 5 (PDE V), isolated from lung
[4] = molecular target: Phosphodiesterase 2 (Canis familiaris); assay: Inhibition of canine adrenal gland Phosphodiesterase 2
[5] = organism: Rattus norvegicus; assay: Relaxant effect on rat aortic rings.; type: functional, organism-based; settings: Aorta
[6] = molecular target: Phosphodiesterase 4 (Canis familiaris); assay: Inhibition of canine lung Phosphodiesterase 4

COC(=O)c1c(C(=O)N2CCC(=O)CC2)cc2cc(OC)c(OC)cc2c1-c1cc(OC)c(OC)c(OC)c1
IC50 [1]: 88 µM
IC50 [2]: > 100 µM
IC50 [3]: 0.5 µM

COC(=O)c1c(C(=O)N2CCN(CCO)CC2)cc2ccc(C)cc2c1-c1cc(Br)c(OC)c(OC)c1
IC50 [1]: 3.5 µM
IC50 [2]: > 100 µM
IC50 [3]: 0.051 µM

COc1cc2cc3c(c(-c4cc(OC)c(OC)c(OC)c4)c2cc1OC)COC3=O
IC50 [1]: 0.43 µM
IC50 [2]: 0.84 µM
IC50 [3]: 0.068 µM

COC(=O)c1c(C(=O)N2CCN(CCO)CC2)cc2cc(OC)c(OC)c(OC)c2c1-c1cc(Br)c(OC)c(OC)c1
IC50 [1]: > 100 µM
IC50 [2]: > 100 µM
IC50 [3]: > 100 µM

CCOC(=O)C1CCN(C(=O)c2cc3cc(OC)c(OC)cc3c(-c3cc(OC)c(OC)c(OC)c3)c2C(=O)OC)CC1
IC50 [1]: 24 µM
IC50 [2]: 60 µM
IC50 [3]: 2 µM

COC(=O)c1c(C(=O)N2CCN(CCO)CC2)cc2cc(OC)c(OC)cc2c1-c1cc(OC)c(OC)c(OC)c1
IC50 [1]: 41 µM
IC50 [4]: > 100 µM
IC50 [2]: > 100 µM
IC50 [3]: 0.094 µM
EC50 [5]: 2 µM
IC50 [6]: > 100 µM

CCOc1cc2cc(C(=O)N3CCN(CCO)CC3)c(C(=O)OC)c(-c3cc(Br)c(OC)c(OC)c3)c2cc1OC
IC50 [3]: 0.017 µM
EC50 [5]: 0.3 µM

COC(=O)c1c(C(=O)N2CCN(C)CC2)cc2cc(OC)c(OC)cc2c1-c1cc(OC)c(OC)c(OC)c1
IC50 [1]: 69 µM
IC50 [2]: > 100 µM
IC50 [3]: 1.4 µM

COC(=O)c1c(C(=O)N2CCN(CCO)CC2)cc2ccccc2c1-c1cc(Br)c(OC)c(OC)c1
IC50 [1]: 3.4 µM
IC50 [4]: > 100 µM
IC50 [2]: > 100 µM
IC50 [3]: 0.025 µM
EC50 [5]: 0.79 µM
IC50 [6]: > 100 µM

COC(=O)c1c(C(=O)N2CCC(O)CC2)cc2cc(OC)c(OC)cc2c1-c1cc(OC)c(OC)c(OC)c1
IC50 [1]: 74 µM
IC50 [2]: > 100 µM
IC50 [3]: 0.17 µM

COC(=O)c1c(C(=O)N2CCN(CCO)CC2)cc2c(Cl)cccc2c1-c1cc(Br)c(OC)c(OC)c1
IC50 [3]: 0.0062 µM
EC50 [5]: 0.1 µM

COC(=O)c1c(C(=O)N2CCN(CCO)CC2)cc2cc(OC)c(OC)cc2c1-c1ccnc(Br)c1
IC50 [3]: > 100 µM

COC(=O)c1c(C(=O)N2CCN(CCO)CC2)cc2cc(OC)ccc2c1-c1cc(Br)c(OC)c(OC)c1
IC50 [3]: 0.012 µM
EC50 [5]: 0.56 µM

COC(=O)c1c(C(N)=O)cc2cc(OC)c(OC)cc2c1-c1cc(OC)c(OC)c(OC)c1
IC50 [1]: 0.82 µM
IC50 [2]: 0.32 µM
IC50 [3]: > 100 µM

COC(=O)c1c(C(=O)N2CCN(CCO)CC2)cc2cc(OC)c(OC)cc2c1-c1ccc2c(c1)OCO2
IC50 [1]: 55 µM
IC50 [2]: > 100 µM
IC50 [3]: 33 µM

COC(=O)c1c(C(=O)N(C)C)cc2cc(OC)c(OC)cc2c1-c1cc(OC)c(OC)c(OC)c1
IC50 [1]: 35 µM
IC50 [2]: 16 µM
IC50 [3]: 0.23 µM

COc1cc2cc(N)c(CO)c(-c3cc(OC)c(OC)c(OC)c3)c2cc1OC
IC50 [1]: 2.1 µM
IC50 [2]: 3.5 µM
IC50 [3]: 13 µM

O=C(O)C1CCN(c2nc(NCc3ccc4c(c3)OCO4)c3cc(Cl)ccc3n2)CC1
IC50 [3]: 0.0016 µM
EC50 [5]: 0.2 µM

COC(=O)c1cc2cc(OC)c(OC)cc2c(-c2cc(OC)c(OC)c(OC)c2)c1C(=O)OC
IC50 [1]: > 100 µM
IC50 [2]: > 100 µM
IC50 [3]: 2.1 µM

COC(=O)c1c(CN2CCN(CCO)CC2)cc2cc(OC)c(OC)cc2c1-c1cc(OC)c(OC)c(OC)c1
IC50 [1]: 26 µM
IC50 [2]: > 100 µM
IC50 [3]: 2.4 µM

COC(=O)c1c(C(=O)N2CCOCC2)cc2cc(OC)c(OC)cc2c1-c1cc(OC)c(OC)c(OC)c1
IC50 [3]: 0.39 µM

COC(=O)c1c(C(=O)N2CCN(CCO)CC2)cc2cc(OC)c(OC)cc2c1-c1cc(N)c(OC)c(OC)c1
IC50 [1]: > 100 µM
IC50 [2]: > 100 µM
IC50 [3]: 30 µM

COC(=O)c1c(C(=O)N2CCN(CCO)CC2)cc2cc(OC)c(OC)cc2c1-c1cc(Cl)c(OC)c(OC)c1
IC50 [1]: 26 µM
IC50 [4]: > 100 µM
IC50 [2]: > 100 µM
IC50 [3]: 0.049 µM
EC50 [5]: 1.3 µM
IC50 [6]: > 100 µM

COC(=O)c1c(C(=O)N2CCN(CCO)CC2)cc2ccc(Cl)cc2c1-c1cc(Br)c(OC)c(OC)c1
IC50 [1]: 1.1 µM
IC50 [2]: > 100 µM
IC50 [3]: 0.021 µM

CNC(=O)c1cc2cc(OC)c(OC)cc2c(-c2cc(OC)c(OC)c(OC)c2)c1C(=O)OC
IC50 [1]: > 100 µM
IC50 [2]: 2.9 µM
IC50 [3]: > 100 µM

COc1cc2cc3c(c(-c4cc(OC)c(OC)c(OC)c4)c2cc1OC)C(=O)N(C)C3=O
IC50 [1]: > 100 µM
IC50 [2]: > 100 µM
IC50 [3]: > 100 µM

COC(=O)c1c(C(=O)N2CCN(CCO)CC2)cc2cc(OC)c(OC)cc2c1/C=C/c1cc(OC)c(OC)c(OC)c1
IC50 [3]: > 100 µM

COC(=O)c1c(C(=O)N2CCN(CCO)CC2)cc2cc(OC)c(OC)cc2c1-c1cccs1
IC50 [1]: 77 µM
IC50 [2]: > 100 µM
IC50 [3]: > 100 µM

COc1cc2cc(C(=O)N3CCN(CCO)CC3)c(CO)c(-c3cc(OC)c(OC)c(OC)c3)c2cc1OC
IC50 [1]: > 100 µM
IC50 [2]: > 100 µM
IC50 [3]: > 100 µM

COC(=O)c1c(C(=O)N2CCN(CCO)CC2)cc2cc(OC)c(OC)cc2c1-c1cc(OC)c(OC)cc1C
IC50 [3]: 52 µM

COC(=O)c1c(C(=O)N2CCCC2)cc2cc(OC)c(OC)cc2c1-c1cc(OC)c(OC)c(OC)c1
IC50 [3]: 0.78 µM

COC(=O)c1c(C(=O)N2CCC(CO)CC2)cc2cc(OC)c(OC)cc2c1-c1cc(OC)c(OC)c(OC)c1
IC50 [1]: 45 µM
IC50 [2]: > 100 µM
IC50 [3]: 0.32 µM

COC(=O)c1c(C(=O)N2CCCCC2)cc2cc(OC)c(OC)cc2c1-c1cc(OC)c(OC)c(OC)c1
IC50 [3]: 2.1 µM

COC(=O)c1c(C(=O)N2CCN(CCO)CC2)cc2cc(OC)c(OC)cc2c1-c1cc(Br)c(OC)c(OC)c1
IC50 [1]: 11 µM
IC50 [4]: > 100 µM
IC50 [2]: > 100 µM
IC50 [3]: 0.024 µM
EC50 [5]: 0.46 µM
IC50 [6]: > 100 µM

COc1cc2cc(CO)c(CO)c(-c3cc(OC)c(OC)c(OC)c3)c2cc1OC
IC50 [1]: 18 µM
IC50 [2]: 0.88 µM
IC50 [3]: 13 µM

COC(=O)c1c(C(=O)N2CCN(CCO)CC2)cc2cc(OC)c(OC)cc2c1-c1cc(Cl)cc(Cl)c1
IC50 [1]: > 100 µM
IC50 [2]: > 100 µM
IC50 [3]: 54 µM

COC(=O)c1c(C(=O)N2CCN(CCO)CC2)cc2cc(OC)c(OC)cc2c1-c1cccc([N+](=O)[O-])c1
IC50 [1]: > 100 µM
IC50 [2]: > 100 µM
IC50 [3]: > 100 µM

COC(=O)c1c(C(=O)N2CCN(CCO)CC2)cc2cc(OC)c(OC)cc2c1-c1ccc(Cl)c(Cl)c1
IC50 [1]: 82 µM
IC50 [2]: > 100 µM
IC50 [3]: 53 µM
